In this assay the target is Advanced glycosylation end product-specific receptor (Homo sapiens, UniProt Q15109). Description: Inhibitory Activity Assay. The protocol:
Table 2-3: Step 1. Add 50 μl anti-DIAPH1 (1:160 dilution in 0.1M NaHCO3 pH 9.6)/well. Incubate overnight at 4° C. Day 2 Step 2. Use the plate washer to aspirate anti-DIAPH11 and wash plates 4× with PBS 100 μl per well per wash. Step 3. Add 180 μl 3% BSA in 1×PBS. Incubate for 1.5 hrs at room temperature Step 4. Use the plate washer to aspirate the blocking solution and wash 5× with PBS 300 μl per well. Step 5. Add 50 μl of DIAPH1 containing lysate (85 μg) and incubate at RT for 3 hours. Step 6. Aspirate the lysate and wash the plate 5×(100 μl) on the plate washer. Step 7. Add 25 μl PBS to the wells. Step 8. Add 0.5 μL compound per well. Step 9. Add 24.5 μL GFP RAGE tail (125 nM) into each well for 2 hrs at room temperature. Step 10. Aspirate and wash 5× with PBS (100 μL) on the plate washer. Step 11. Add 100 μl PBS in each well. Step 12. Detection: Read on fluorescence plate reader excitation 435 nm and 485 nm emission
Sequence of Advanced glycosylation end product-specific receptor (Q15109 whole entry): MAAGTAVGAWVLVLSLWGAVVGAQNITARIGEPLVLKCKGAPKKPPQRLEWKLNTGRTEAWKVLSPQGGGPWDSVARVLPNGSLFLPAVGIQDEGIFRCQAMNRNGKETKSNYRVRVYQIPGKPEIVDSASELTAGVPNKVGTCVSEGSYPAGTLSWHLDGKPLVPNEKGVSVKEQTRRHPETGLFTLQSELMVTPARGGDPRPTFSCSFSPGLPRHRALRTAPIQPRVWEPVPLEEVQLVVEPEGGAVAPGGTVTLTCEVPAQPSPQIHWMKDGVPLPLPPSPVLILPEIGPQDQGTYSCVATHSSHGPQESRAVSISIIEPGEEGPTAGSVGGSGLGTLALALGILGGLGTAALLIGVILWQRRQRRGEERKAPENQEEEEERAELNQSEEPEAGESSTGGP
In the case of `CC(=O)Nc1ccc(-c2cc(C(=O)NCCN(C)C)c3ccccc3n2)cc1` [US11192859, Compound 4], binding was characterised by a dissociation constant (Kd) of 56 µM.

The compound `CC(=O)Nc1ccc(-c2cc(C(=O)N3CCOCC3)c3ccccc3n2)cc1` [US11192859, Compound 5] displayed a dissociation constant (Kd) of 41 µM.

Compound `COCCNC(=O)c1cc(-c2ccc(NC(C)=O)cc2)nc2ccccc12` [US11192859, Compound 6] came in with a Kd of 99 µM.

As to `CC(=O)Nc1ccc(-c2cc(C(=O)N3CCCC3)c3ccccc3n2)cc1` [US11192859, Compound 7], binding was put at a Kd of 77 µM.
